One block for each molecule: values may come before it.
Key:
Schistosoma mansoni [1] = assay: Antischistosomal activity against juvenile Schistosoma mansoni assessed as worm death at 10 uM incubated for 24 hrs relative to control; assay type: functional
Schistosoma mansoni [2] = assay: Antischistosomal activity against Schistosoma mansoni Schistosomula assessed as worm death at 10 uM incubated for 24 hrs relative to control; assay type: functional
Schistosoma japonicum [3] = assay: Antischistosomal activity against Schistosoma japonicum assessed as worm death at 10 uM incubated for 120 hrs relative to control; assay type: functional; settings: for mortality at 10 µM: Schistosoma japonicum
[4] = target: T1, Thioredoxin glutathione reductase (Schistosoma mansoni, UniProt Q962Y6); assay: Inhibition of Schistosoma mansoni thioredoxin glutathione reductase incubated for 30 mins by DTNB assay
T1 sequence (Q962Y6 whole entry): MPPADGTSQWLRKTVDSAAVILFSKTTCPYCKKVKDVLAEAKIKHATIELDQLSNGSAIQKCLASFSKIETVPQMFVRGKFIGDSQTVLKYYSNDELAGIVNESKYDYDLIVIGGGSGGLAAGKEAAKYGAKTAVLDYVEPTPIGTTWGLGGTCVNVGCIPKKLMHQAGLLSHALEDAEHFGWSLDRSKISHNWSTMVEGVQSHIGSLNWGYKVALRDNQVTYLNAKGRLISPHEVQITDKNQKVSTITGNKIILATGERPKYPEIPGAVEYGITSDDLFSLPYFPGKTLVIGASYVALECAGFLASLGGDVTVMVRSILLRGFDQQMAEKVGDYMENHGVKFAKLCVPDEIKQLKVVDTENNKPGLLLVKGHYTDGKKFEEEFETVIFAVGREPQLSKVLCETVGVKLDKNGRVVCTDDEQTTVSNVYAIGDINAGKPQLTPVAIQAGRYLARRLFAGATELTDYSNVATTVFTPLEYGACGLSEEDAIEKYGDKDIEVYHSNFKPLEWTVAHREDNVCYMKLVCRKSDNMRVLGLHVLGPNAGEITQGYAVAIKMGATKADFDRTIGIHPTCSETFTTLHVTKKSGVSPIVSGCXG

Schistosoma mansoni [5] = assay: Antischistosomal activity against adult Schistosoma mansoni assessed as worm death at 10 uM incubated for 120 hrs relative to control; assay type: functional
Schistosoma haematobium [6] = assay: Antischistosomal activity against Schistosoma haematobium assessed as worm death at 10 uM incubated for 120 hrs relative to control; assay type: functional
Schistosoma mansoni [7] = assay: Antischistosomal activity against Schistosoma mansoni assessed as worm death at 10 uM incubated for 72 hrs relative to control; assay type: functional
Schistosoma haematobium [8] = assay: Antischistosomal activity against Schistosoma haematobium assessed as worm death at 10 uM incubated for 96 hrs relative to control; assay type: functional
Schistosoma mansoni [9] = assay: Antischistosomal activity against Schistosoma mansoni assessed as worm death at 10 uM incubated for 48 hrs relative to control; assay type: functional
Schistosoma mansoni [10] = assay: Antischistosomal activity against Schistosoma mansoni schistosomula incubated for 24 hrs by celltiter-glo reagent based assay; assay type: functional, organism-based
Schistosoma mansoni [11] = assay: Antischistosomal activity against adult Schistosoma mansoni Puerto-Rican incubated for 7 days by stereomicroscopy; assay type: functional; settings: time 7 day
[12] = Inhibition of NACE in Schistosoma mansoni using 1-N6-ethenonicotinamide adenine dinucleotide as substrate incubated for 30 mins by fluorometric assay
[13] = Inhibition of C-terminal His6-tagged Schistosoma mansoni NACE expressed in Pichia pastoris using 1-N6-ethenonicotinamide adenine dinucleotide as substrate by fluorometric assay
Schistosoma mansoni [14] = assay: Antischistosomal activity against adult Schistosoma mansoni assessed as worm death at 10 uM incubated for 144 hrs relative to control; assay type: functional
Schistosoma mansoni [15] = assay: Antischistosomal activity against juvenile Schistosoma mansoni assessed as worm death at 10 uM incubated for 72 hrs relative to control; assay type: functional
Schistosoma mansoni [16] = assay: Antischistosomal activity against juvenile Schistosoma mansoni assessed as worm death at 12.5 uM incubated for 120 hrs relative to control; assay type: functional
Schistosoma mansoni [17] = assay: Antischistosomal activity against Schistosoma mansoni Schistosomula assessed as worm death at 12.5 uM incubated for 120 hrs relative to control; assay type: functional
Schistosoma japonicum [18] = assay: Antischistosomal activity against adult Schistosoma japonicum assessed as worm death at 12.5 uM incubated for 120 hrs relative to control; assay type: functional
Schistosoma mansoni [19] = assay: Antischistosomal activity against adult Schistosoma mansoni assessed as worm death at 12.5 uM incubated for 120 hrs relative to control; assay type: functional
Schistosoma mansoni [20] = assay: Antischistosomal activity against Schistosoma mansoni assessed as worm death at 50 uM in presence of red blood cells relative to control; assay type: functional
ATP-diphosphohydrolase 1 = target: T2, ATP-diphosphohydrolase 1 (Schistosoma mansoni, UniProt Q7YTA4); assay: Inhibition of Schistosoma mansoni ATPDase1 preincubated for 30 mins followed by addition of ATP/ADP by spectrophotometric method
T2 sequence (Q7YTA4 whole entry): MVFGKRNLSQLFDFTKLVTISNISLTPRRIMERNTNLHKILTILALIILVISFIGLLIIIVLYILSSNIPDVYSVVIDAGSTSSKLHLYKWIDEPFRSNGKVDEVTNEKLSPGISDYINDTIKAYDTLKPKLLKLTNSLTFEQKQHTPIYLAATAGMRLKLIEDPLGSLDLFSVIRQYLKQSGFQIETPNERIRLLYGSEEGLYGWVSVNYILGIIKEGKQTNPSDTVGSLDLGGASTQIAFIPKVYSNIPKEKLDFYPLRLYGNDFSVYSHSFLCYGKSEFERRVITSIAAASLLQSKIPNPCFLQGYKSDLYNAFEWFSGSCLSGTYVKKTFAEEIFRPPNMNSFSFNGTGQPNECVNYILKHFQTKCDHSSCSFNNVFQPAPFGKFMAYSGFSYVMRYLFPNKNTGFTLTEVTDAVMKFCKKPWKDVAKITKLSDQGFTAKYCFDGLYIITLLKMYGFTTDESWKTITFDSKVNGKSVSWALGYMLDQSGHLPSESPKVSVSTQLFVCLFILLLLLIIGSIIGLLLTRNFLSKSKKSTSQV

[21] = target: T3, ATP-diphosphohydrolase 1 (Schistosoma mansoni) (UniProt Q7YTA4); assay: Inhibition of Schistosoma mansoni ATPDase1 at 40 uM preincubated for 30 mins followed by addition of ATP/ADP by spectrophotometric method relative to control
T3 sequence (whole entry): T2 sequence (Q7YTA4 whole entry)

Schistosoma mansoni [22] = assay: Antischistosomal activity against Schistosoma mansoni BH assessed as extensive tegumental alteration at 25 uM measured after 24 hrs by light microscopy relative to control; assay type: functional
Schistosoma mansoni [23] = assay: Antischistosomal activity against Schistosoma mansoni BH assessed as reduction in motor activity at 25 uM measured after 24 hrs by light microscopy relative to control; assay type: functional; parameters: scale not given: the % may be the effect or the level left
Schistosoma mansoni [24] = assay: Antischistosomal activity against Schistosoma mansoni BH assessed as worm death at 50 uM measured after 72 to 120 hrs by inverted optical microscopic method relative to control; assay type: functional; settings: time 72-120 hrs
Schistosoma mansoni [25] = assay: Antischistosomal activity against Schistosoma mansoni by confocal laser scanning microscopy; assay type: functional, organism-based
Schistosoma haematobium [26] = assay: Antischistosomal activity against Schistosoma haematobium assessed as worm death at 10 uM incubated for 144 hrs relative to control; assay type: functional
Schistosoma mansoni [27] = assay: Antischistosomal activity against juvenile Schistosoma mansoni assessed as worm death at 10 uM incubated for 120 hrs relative to control; assay type: functional

Structure (SMILES): CCN(c1ccccc1)S(=O)(=O)c1ccc(NC(=O)c2nc(S(C)(=O)=O)ncc2Cl)cc1
- mortality at 10 µM (Schistosoma mansoni [1]): 100%
- mortality at 10 µM (Schistosoma mansoni [2]): 100%
- mortality at 10 µM (Schistosoma japonicum [3]): 50%
- IC50 [4]: 210 nM
- mortality at 10 µM (Schistosoma mansoni [5]): 78%
- mortality at 10 µM (Schistosoma haematobium [6]): 94%

Structure (SMILES): O=c1c(Cl)c(-n2cc(CO)nn2)cnn1-c1ccccc1
- mortality at 10 µM (Schistosoma mansoni [2]): 100%
- Activity (Schistosoma japonicum [3]): 70%
- Activity (Schistosoma mansoni [7]): 100%
- IC50 [4]: 2840 nM
- Activity (Schistosoma haematobium [8]): 100%
- Activity (Schistosoma mansoni [9]): 100%

- IC50 (Schistosoma mansoni [10]): 13900 nM
Structure (SMILES): COC1=C(Cc2ccc(OC)cc2)C(=O)C2=C(NCCS2(=O)=O)C1=O
- Activity (Schistosoma mansoni [11]): 100%

- IC50 [12]: 20000 nM
- IC50 [13]: 2200 nM
Structure (SMILES): O=C(Nc1nc(=O)c2ccccc2s1)c1ccco1

Structure (SMILES): O=[N+]([O-])c1ccc2c(c1)S(=O)(=O)C=C2
- mortality at 10 µM (Schistosoma mansoni [14]): 76%
- mortality at 10 µM (Schistosoma mansoni [2]): 100%
- mortality at 10 µM (Schistosoma japonicum [3]): 69%
- IC50 [4]: 2010 nM
- mortality at 10 µM (Schistosoma mansoni [15]): 100%
- mortality at 10 µM (Schistosoma haematobium [6]): 85%

Structure (SMILES): CCOC(=O)C(C(=O)OCC)C1=C(Br)C2=NOC3c4ccccc4C(=O)C(=C1)C23 (stereo not given)
- mortality at 12.5 µM (Schistosoma mansoni [16]): 100%
- mortality at 12.5 µM (Schistosoma mansoni [17]): 96%
- mortality at 12.5 µM (Schistosoma japonicum [18]): 100%
- mortality at 12.5 µM (Schistosoma mansoni [19]): 28%
- IC50 [4]: 140 nM

Structure (SMILES): CC1=C(Cc2ccc(C(F)(F)F)cc2)C(=O)c2cc(C)cnc2C1=O
- Activity (Schistosoma mansoni [20]): 100%

Structure (SMILES): COc1cc(O)cc(O)c1C(=O)/C=C/c1ccccc1 [CARDAMOMIN]
- IC50 (ATP-diphosphohydrolase 1): 23500 nM
- inhibition [21]: 82%
- Activity (Schistosoma mansoni [22]): 100%
- Activity (Schistosoma mansoni [23]): 100%

Structure (SMILES): O=C1CS/C(=N\N=C/c2cccc3c2OCO3)N1c1ccc(Br)cc1
- Activity (Schistosoma mansoni [24]): 83.3%

- IC50 (Schistosoma mansoni [25]): 47900 nM
Structure (SMILES): COc1cc(/C=N/NC(=O)c2ccc(C(C)(C)C)cc2)ccc1O

Structure (SMILES): COC(=O)CS(=O)(=O)c1nnc(C(Cc2ccccc2)NC(=O)OC(C)(C)C)o1 (stereo not given)
- mortality at 10 µM (Schistosoma haematobium [26]): 67%
- mortality at 10 µM (Schistosoma mansoni [2]): 99%
- mortality at 10 µM (Schistosoma japonicum [3]): 65%
- IC50 [4]: 330 nM
- mortality at 10 µM (Schistosoma mansoni [5]): 62%
- mortality at 10 µM (Schistosoma mansoni [27]): 39%
